Reference: patent publication US20030232797A1, “Novel derivatives of androstane and androstene with ascorbic acid and use thereof in treating or preventing various conditions, diseases, and disorders” (priority 2002, published 2003)
Where a name gives a salt, the structure may show the parent alone.

With `C[C@]12CC[C@H](OP(=O)(O)OC3=C(O)C(C(O)CO)OC3=O)CC1=CCC1C2CC[C@@]2(C)C1CC[C@@H]2OP(=O)(O)OC1=C(O)C(C(O)CO)OC1=O` (stereo partly drawn) [Diascorbyl diphosphate of androst-5ene-3β,17β-diol, tetrasodium salt] the Solubility in ethanol (ethanol) was “Slightly soluble” and the Solubility in water (water, 50 mg sample, 50 microliter portions every 10 minutes, ultrasonic bath) was 10.6 %, w/w.
